This assay concerns the target T1, STAT6 (Homo sapiens, UniProt P42226).
T1 construct: endogenous in cells; host or cells: MOLM-16, KU-812, SKNO1, MB231, L1236
T1 sequence (P42226 1-847): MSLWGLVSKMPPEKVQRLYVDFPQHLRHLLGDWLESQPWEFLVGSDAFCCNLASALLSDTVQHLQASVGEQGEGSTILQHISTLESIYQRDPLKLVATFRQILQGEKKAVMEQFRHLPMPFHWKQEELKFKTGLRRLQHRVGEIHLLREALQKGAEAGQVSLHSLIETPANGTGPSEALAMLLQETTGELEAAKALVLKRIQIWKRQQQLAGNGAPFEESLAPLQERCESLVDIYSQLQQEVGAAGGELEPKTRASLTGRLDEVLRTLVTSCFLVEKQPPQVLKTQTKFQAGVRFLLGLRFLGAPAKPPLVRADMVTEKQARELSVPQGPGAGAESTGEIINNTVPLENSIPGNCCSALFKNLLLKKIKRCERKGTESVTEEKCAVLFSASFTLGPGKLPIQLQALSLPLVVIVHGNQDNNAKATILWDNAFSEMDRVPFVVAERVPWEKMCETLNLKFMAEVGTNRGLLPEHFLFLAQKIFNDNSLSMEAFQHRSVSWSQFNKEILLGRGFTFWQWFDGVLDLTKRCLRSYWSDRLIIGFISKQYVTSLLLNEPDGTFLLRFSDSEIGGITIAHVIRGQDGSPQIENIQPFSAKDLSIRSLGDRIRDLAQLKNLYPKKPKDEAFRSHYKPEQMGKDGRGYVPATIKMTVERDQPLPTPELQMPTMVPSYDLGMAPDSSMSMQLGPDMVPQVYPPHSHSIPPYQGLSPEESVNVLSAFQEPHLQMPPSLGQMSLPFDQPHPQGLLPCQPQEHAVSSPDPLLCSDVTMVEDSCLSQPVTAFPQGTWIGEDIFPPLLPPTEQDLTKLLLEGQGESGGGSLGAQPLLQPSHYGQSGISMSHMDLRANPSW
The experiment in a line: Immunoblotting (Western blot) analysis of STAT6 degradation efficiency of degraders in treated cells. The class given is cell-based. Put shortly:
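Read-out: fluorescent IRDye 680RD/800CW secondaries imaged on an infrared scanner, with band intensities quantified by densitometry and GAPDH serving as loading control. Samples were RIPA lysates, BCA-normalised, from ~1 million treated cells.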
(In general: In western blotting, separated proteins are transferred to a membrane and probed.)

Where [1] appears, read: MOLM-16 cells, class symbols, read-out: DC50 S6 MOLM-16.
Setting [2] is: L1236 cells, read-out: DC50 S6 L1236.

SMILES strings stand for the structures. Where two headings read alike, the source gives them in different places. *1 amine or outer side, *2 acyl side, *3 side chain or, on linkers, in order; H or OH if unused. Where a SMILES comes first, the peptide text is derived from it. [ ]: non-standard residue; d: D form. The star is where a group is joined. Benzothienyl2CO(5-CF2PO3H2) = O=C(c1cc2cc(C(F)(F)P(=O)(O)O)ccc2s1)*; βAla(N-(4-Br-phenyl)) = O=C(CCN(c1ccc(Br)cc1)[*:1])[*:2]; NHBn(4-(4-Me-thiazol-5-yl)) = Cc1ncsc1-c1ccc(CN*)cc1; Hyp = O=C(O)[C@@H]1C[C@@H](O)CN1; Tle = CC(C)(C)[C@H](N)C(=O)O; Ahp = NCCCCCCC(=O)O

For `CC(C)(C)[C@H](NC(=O)c1cc2cc(C(F)(F)P(=O)(O)O)ccc2s1)C(=O)N1CCN(C(=O)CC(=O)NCC#Cc2ccc3c(c2)C(=O)N(C2CCC(=O)NC2=O)C3=O)C[C@H]1C(=O)N1CCO[C@H](c2ccccc2)C1` (stereo partly drawn) [Compound 508, ((2-(((2S)-1-((2S)-4-(3-((3-(2-(2,6-dioxopiperidin-3-yl)-1,3-dioxoisoindolin-5-yl)prop-2-yn-1-yl)amino)-3-oxopropanoyl)-2-((R)-2-phenylmorpholine-4-carbonyl)piperazin-1-yl)-3,3-dimethyl-1-oxobutan-2-yl)carbamoyl)benzo[b]thiophen-5-yl)difluoromethyl)phosphonic acid], under setting [1], the 50% degradation concentration (DC50) is greater than 10 µM.

For `Cc1ncsc1-c1ccc([C@H](C)NC(=O)[C@@H]2C[C@@H](O)CN2C(=O)[C@@H](NC(=O)CCCCCNC(=O)CO[C@H]2C[C@@H](C(=O)N3CCC[C@H](c4ccccc4)C3)N(C(=O)[C@@H](NC(=O)c3cc4cc(C(F)(F)P(=O)(O)O)ccc4s3)C(C)(C)C)C2)C(C)(C)C)cc1` [Compound 438, (difluoro(2-(((S)-1-((2S,4S)-4-(2-((6-(((S)-1-((2S,4R)-4-hydroxy-2-(((S)-1-(4-(4-methylthiazol-5-yl)phenyl)ethyl)carbamoyl)pyrrolidin-1-yl)-3,3-dimethyl-1-oxobutan-2-yl)amino)-6-oxohexyl)amino)-2-oxoethoxy)-2-((R)-3-phenylpiperidine-1-carbonyl)pyrrolidin-1-yl)-3,3-dimethyl-1-oxobutan-2-yl)carbamoyl)benzo[b]thiophen-5-yl)methyl)phosphonic acid], the DC50 under setting [2] is greater than 10 µM and the DC50 under setting [1] is greater than 10 µM.

Regarding `O=C1CCC(N2Cc3c(C#CCCCCCC(=O)N4CC[C@H]5CC[C@@H](C(=O)N6CC[C@@H](c7ccccc7)C6)N5C(=O)[C@@H](NC(=O)c5cc6cc(C(F)(F)P(=O)(O)O)ccc6s5)C4)cccc3C2=O)C(=O)N1` (stereo partly drawn) [Compound 563, ((2-(((5S,8S,10aR)-3-(8-(2-(2,6-dioxopiperidin-3-yl)-1-oxoisoindolin-4-yl)oct-7-ynoyl)-6-oxo-8-((S)-3-phenylpyrrolidine-1-carbonyl)decahydropyrrolo[1,2-a][1,5]diazocin-5-yl)carbamoyl)benzo[b]thiophen-5-yl)difluoromethyl)phosphonic acid], the DC50 runs as follows: under setting [2], greater than 10 µM; under setting [1], greater than 10 µM.

On to `CC(C)(C)[C@H](NC(=O)c1cc2cc(C(F)(F)P(=O)(O)O)ccc2s1)C(=O)N1CCN(C(=O)CC(=O)NCCCCCC#Cc2cccc3c2C(=O)N(C2CCC(=O)NC2=O)C3=O)C[C@H]1C(=O)N1CCO[C@H](c2ccccc2)C1` (stereo partly drawn) [Compound 515, ((2-(((2S)-1-((2S)-4-(3-((7-(2-(2,6-dioxopiperidin-3-yl)-1,3-dioxoisoindolin-4-yl)hept-6-yn-1-yl)amino)-3-oxopropanoyl)-2-((R)-2-phenylmorpholine-4-carbonyl)piperazin-1-yl)-3,3-dimethyl-1-oxobutan-2-yl)carbamoyl)benzo[b]thiophen-5-yl)difluoromethyl)phosphonic acid], for which the DC50 under setting [1] was greater than 10 µM.

For `CC(C)(C)c1ccc(C[C@H](NC(=O)c2cc3cc(C(F)(F)P(=O)(O)O)ccc3s2)C(=O)N2C[C@@H](OCCCCCCC#Cc3cccc4c3CN(C3CCC(=O)NC3=O)C4=O)C[C@H]2C(=O)N2CCO[C@H](c3ccccc3)C2)cc1` (stereo partly drawn) [Compound 589, ((2-(((2S)-3-(4-(tert-butyl)phenyl)-1-((2S,4S)-4-((8-(2-(2,6-dioxopiperidin-3-yl)-1-oxoisoindolin-4-yl)oct-7-yn-1-yl)oxy)-2-((R)-2-phenylmorpholine-4-carbonyl)pyrrolidin-1-yl)-1-oxopropan-2-yl)carbamoyl)benzo[b]thiophen-5-yl)difluoromethyl)phosphonic acid], the DC50 under setting [1] was 1 to 10 µM.

Consider `Cc1ncsc1-c1ccc([C@H](C)NC(=O)[C@@H]2C[C@@H](O)CN2C(=O)[C@@H](NC(=O)CCCCNC(=O)COc2ccc3c(c2)CN(C(=O)[C@@H](NC(=O)c2cc4cc(C(F)(F)P(=O)(O)O)ccc4s2)C(C)(C)C)[C@H](C(=O)N2CCO[C@H](c4ccccc4)C2)C3)C(C)(C)C)cc1` [Compound 464, (difluoro(2-(((S)-1-((S)-7-(2-((5-(((S)-1-((2S,4R)-4-hydroxy-2-(((S)-1-(4-(4-methylthiazol-5-yl)phenyl)ethyl)carbamoyl)pyrrolidin-1-yl)-3,3-dimethyl-1-oxobutan-2-yl)amino)-5-oxopentyl)amino)-2-oxoethoxy)-3-((R)-2-phenylmorpholine-4-carbonyl)-3,4-dihydroisoquinolin-2(1H)-yl)-3,3-dimethyl-1-oxobutan-2-yl)carbamoyl)benzo[b]thiophen-5-yl)methyl)phosphonic acid], for which the DC50 was greater than 10 µM under setting [2] and greater than 10 µM under setting [1].

Consider `Cc1ncsc1-c1ccc([C@H](C)NC(=O)[C@@H]2C[C@@H](O)CN2C(=O)[C@@H](NC(=O)CCNC(=O)COc2ccc3c(c2)CN(C(=O)[C@@H](NC(=O)c2cc4cc(C(F)(F)P(=O)(O)O)ccc4s2)C(C)(C)C)[C@H](C(=O)N2CCO[C@H](c4ccccc4)C2)C3)C(C)(C)C)cc1` [Compound 462, (difluoro(2-(((S)-1-((S)-7-(2-((3-(((S)-1-((2S,4R)-4-hydroxy-2-(((S)-1-(4-(4-methylthiazol-5-yl)phenyl)ethyl)carbamoyl)pyrrolidin-1-yl)-3,3-dimethyl-1-oxobutan-2-yl)amino)-3-oxopropyl)amino)-2-oxoethoxy)-3-((R)-2-phenylmorpholine-4-carbonyl)-3,4-dihydroisoquinolin-2(1H)-yl)-3,3-dimethyl-1-oxobutan-2-yl)carbamoyl)benzo[b]thiophen-5-yl)methyl)phosphonic acid], for which the DC50 by setting is: under setting [2], greater than 10 µM; under setting [1], greater than 10 µM.

For `Cc1ncsc1-c1ccc(CNC(=O)[C@@H]2C[C@@H](O)CN2C(=O)[C@@H](NC(=O)CCCCCCNC(=O)CCN(C(=O)[C@@H]2CCCN2C(=O)[C@@H](NC(=O)c2cc3cc(C(F)(F)P(=O)(O)O)ccc3s2)C(C)(C)C)c2ccc(Br)cc2)C(C)(C)C)cc1` [Compound 399] ({Benzothienyl2CO(5-CF2PO3H2)}-[Tle]P[βAla(N-(4-Br-phenyl))][Ahp][Tle][Hyp]-{NHBn(4-(4-Me-thiazol-5-yl))}), the DC50 (read-out: DC50 S6 MB231, MB231 cells) was greater than 10 µM.

Take `Cc1ncsc1-c1ccc([C@H](C)NC(=O)[C@@H]2C[C@@H](O)CN2C(=O)[C@@H](NC(=O)CCNC(=O)CC(=O)N2CCN(C(=O)[C@@H](NC(=O)c3cc4cc(C(F)(F)P(=O)(O)O)ccc4s3)C(C)(C)C)[C@H](C(=O)N3CCO[C@H](c4ccccc4)C3)C2)C(C)(C)C)cc1` [Compound 444, (difluoro(2-(((S)-1-((S)-4-(3-((3-(((S)-1-((2S,4R)-4-hydroxy-2-(((S)-1-(4-(4-methylthiazol-5-yl)phenyl)ethyl)carbamoyl)pyrrolidin-1-yl)-3,3-dimethyl-1-oxobutan-2-yl)amino)-3-oxopropyl)amino)-3-oxopropanoyl)-2-((R)-2-phenylmorpholine-4-carbonyl)piperazin-1-yl)-3,3-dimethyl-1-oxobutan-2-yl)carbamoyl)benzo[b]thiophen-5-yl)methyl)phosphonic acid]: the DC50 reads like this: under setting [2], greater than 10 µM; under setting [1], greater than 10 µM.

Turning to `CC(C)(C)[C@H](NC(=O)c1cc2cc(C(F)(F)P(=O)(O)O)ccc2s1)C(=O)N1CCN(C(=O)CC(=O)NCCCCCCCCCC#Cc2ccc3c(c2)C(=O)N(C2CCC(=O)NC2=O)C3=O)C[C@H]1C(=O)N1CCO[C@H](c2ccccc2)C1` (stereo partly drawn) [Compound 520, ((2-(((2S)-1-((2S)-4-(3-((11-(2-(2,6-dioxopiperidin-3-yl)-1,3-dioxoisoindolin-5-yl)undec-10-yn-1-yl)amino)-3-oxopropanoyl)-2-((R)-2-phenylmorpholine-4-carbonyl)piperazin-1-yl)-3,3-dimethyl-1-oxobutan-2-yl)carbamoyl)benzo[b]thiophen-5-yl)difluoromethyl)phosphonic acid], under setting [1], the DC50 is greater than 10 µM.

As for `Cc1ncsc1-c1ccc([C@H](C)NC(=O)[C@@H]2C[C@@H](O)CN2C(=O)[C@@H](NC(=O)CCCCCCNC(=O)COc2ccc3c(c2)CN(C(=O)[C@@H](NC(=O)c2cc4cc(C(F)(F)P(=O)(O)O)ccc4s2)C(C)(C)C)[C@H](C(=O)N2CCC[C@H](c4ccccc4)C2)C3)C(C)(C)C)cc1` [Compound 475, (difluoro(2-(((S)-1-((S)-7-(2-((7-(((S)-1-((2S,4R)-4-hydroxy-2-(((S)-1-(4-(4-methylthiazol-5-yl)phenyl)ethyl)carbamoyl)pyrrolidin-1-yl)-3,3-dimethyl-1-oxobutan-2-yl)amino)-7-oxoheptyl)amino)-2-oxoethoxy)-3-((R)-3-phenylpiperidine-1-carbonyl)-3,4-dihydroisoquinolin-2(1H)-yl)-3,3-dimethyl-1-oxobutan-2-yl)carbamoyl)benzo[b]thiophen-5-yl)methyl)phosphonic acid], the half-maximal degradation concentration (DC50) under setting [1] was greater than 10 µM.

By DC50 is commonly meant the concentration giving 50% degradation.

Values taken from US20230295197A1, “STAT5 and STAT6 Degraders and Uses Thereof” (REGENTS OF THE UNIVERSITY OF MICHICAN, priority 2022, published 2023).
